Laboratory results from patent US20120083464A1, “NEUROPROTECTIVE PROPERTIES OF 5'-METHYLTHIOADENOSINE” (priority 2009, published 2012).

What was measured:
[1] = test system: dopaminergic neurons (TH+ cells) in the substantia nigra; assay: MPTP mice model of Parkinson disease, TH immunohistochemistry; assay type: in vivo, C57B1 mice
Protocol: Male C57B1 mice, with a body ranging in weight from 23 to 31 g were used in this study. MPTP (Sigma) dissolved in 0.9% NaCl was injected intraperitonealy at a dose of 30 mg/kg for 5 days. MTA was dissolved in purified water with 2% of DMSO at a final concentration of 6 mg/ml and was injected intraperitonealy at a dose of […] or 192 μmol/Kg. The first day of the experiment MTA was injected 24 hours before the MPTP injection and during the following four days administration of MTA was 1 hour before the administration of MPTP. Mice were divided in four groups: (1) MPTP (n=6); (2) MPTP plus 96 μmol/Kg MTA (n=6); (3) MPTP plus 192 μmol/Kg MTA (n=9) and (4) Control group (n=2).
At the end of the experiment, animals were anesthetized with an overdose of 10% chloral hydrate in distilled water and then transcardially perfused with saline Ringer's solution followed by 100 ml of a cold fixative solution containing 4% paraformaldehyde and 0.4% glutaraldehyde in 0.125 M PB, pH 7.4. After perfusion, the skull was opened and the brain removed was post-fixed overnight at 4° C. in the same fixative solution and next stored in a cryoprotective solution containing 20% glycerine and 2% dimethylsulphoxide in 0.125 M PB, pH 7.4. Frozen coronal microtome sections (50 μm-thick) were obtained and collected in 0.125 M PB, pH 7.4, in 6 series of adjacent sections. Sections were stored at −80° C. until further processing.
With a random start, every third sections through the entire SN were sampled. The sections were processed free-floating. Endogenous peroxidase activity was removed by incubating the sections in methanol with 1.25% H2O2 for 40 min. […] Histological quantification was done using the CAST system from Olympus using the BX50 microscope and following the methods described by Oorschot (J Comp Neurol 366:580-599, 1996). […] Neurons were counted using the optic dissector every 3 sections at 150 μm distance and at ×400. […]

[2] = test system: mixed cultures of neurons and astrocytes obtained from the cerebral cortex; assay: Oxygen-glucose deprivation (simulated ischemia) in neuron-astrocyte co-cultures; assay type: cell-based, Sprague-Dawley rat
Excerpt: Primary neuron cultures were obtained from the cortical lobes of E18 Sprague-Dawley rat embryos according to previously described procedures (Cheung et al., 1998, Neuropharmacology 37:1419-1429). The cells were resuspended in B27 Neurobasal medium plus 10% FBS and then seeded in 24-well plates at 1-2×10^5 cells per well onto a monolayer of astrocytes which were previously prepared as described earlier (Vallejo-Illarramendi et al., 2005, Glia 50:276-279). One day later, the medium was replaced by B27-supplemented Neurobasal medium and 10% fetal bovine serum, and maintained at 37° C. and 5% CO2. Cultures were used 8-9 days after plating. Cultured neurons and astrocytes were identified using antibodies to microtubule associated protein-2 and glial fibrillary acidic protein, respectively.
Ischemic damage was induced by incubating cell cultures in a hyperbaric chamber for 1 hour in nitrogen-saturated buffer containing NaCl 130 mM, KCl 5.4 mM, CaCl2 0.1323 mM, […], MgCl2 0.8 mM, NaH2PO4 1.18 mM, 10 mM sucrose as a substitute of glucose, and the glyocolytic blocker iodoacetate (20 or 50 μM). After the insult, cells were incubated in normoxia, glucose added and iodoacetate removed for an additional period of 24 hours. […] The results are expressed as the mean±SEM of at least four independent experiments performed in triplicate.

[3] = test system: CA1 hippocampal neurons; assay: Global ischemia (four-vessel occlusion, 10 min), Fluoro jade staining; assay type: in vivo, Wistar rats; conditions: P<0.01
Protocol: Before surgical procedures, animals were fasted overnight. The rats were subjected to middle cerebral artery occlusion (MCAO) for 90 min using the intraluminal filament model as described previously (Rickhag et al, 2006; J Neurochem 96:14-29). Blood flow was monitored transcraneally with a doppler laser (Perimed). All physiologic parameters of animals included in the study were within normal ranges and included animals showing typical ischemia-induced behavioral deficits, rotational asymmetry, and dysfunctional limb placement. Rectal and body temperature was maintained at 37° C. during surgery and ischemia with a heating pad. Transient forebrain ischemia was induced by occlusion of the vertebral and common carotid arteries for 10 min according to the method described by Pulsinelli and Brierley (1979; Stroke 10, 267-272.). Criteria for forebrain ischemia were bilateral loss of the righting reflex, paw extension and mydriasis. […]
The animals were treated with MTA (30 or 100 mg/kg i.p.), twice daily reconstituted in Tris 300 mM, or placebo (Tris 300 mM) starting at 30 min of the onset of ischemia. […]

## CSC[C@H]1O[C@@H](n2cnc3c(N)ncnc32)[C@H](O)[C@@H]1O [MTA, 5′-methylthioadenosine]
[1]; MPTP 30 mg/kg for 5 days plus MTA 96 μM/day (so in the source)
  reduction in the number of TH (dopaminergic) neurons compared to controls: 10%
[1]; MPTP plus MTA 96 μM/day (so in the source)
  higher number of dopaminergic neurons than MPTP treated animals: 30%
[1]; MPTP plus MTA (96 μM as printed)
  number of TH neurons versus MPTP animals: significantly higher number of TH neurons
[2]; MTA at 10 μM
  protection from OGD-induced damage compared with APV (50 μM): even more protective than APV
[2]; OGD 1 hour with IAA at 20 or 50 μM, both conditions, assayed 24 hours later
  protection from OGD (ischemia)-induced damage: highly protective
[3]; 10 min global ischemia, MTA i.p. twice daily from 30 min post-ischemia, 7 days
  CA1 hippocampal neuron cell death (Fluoro jade fluorescence): protects
[3]; MTA 30 mg/kg i.p. twice daily, 7 days of reperfusion
  lower levels of dying cells in the CA1 region versus vehicle (Fluoro jade): about 50%
